This note sets out measurements from article PMC10709440, “High-throughput ligand profile characterization in novel cell lines expressing seven heterologous insect olfactory receptors for the detection of volatile plant biomarkers” (Scientific Reports, 2023).

For test [1], the target named is T1, Drosophila OR47a (Drosophila melanogaster, UniProt P81921).
T1 construct: expressed in transfected cells
T1 sequence (P81921 1-385): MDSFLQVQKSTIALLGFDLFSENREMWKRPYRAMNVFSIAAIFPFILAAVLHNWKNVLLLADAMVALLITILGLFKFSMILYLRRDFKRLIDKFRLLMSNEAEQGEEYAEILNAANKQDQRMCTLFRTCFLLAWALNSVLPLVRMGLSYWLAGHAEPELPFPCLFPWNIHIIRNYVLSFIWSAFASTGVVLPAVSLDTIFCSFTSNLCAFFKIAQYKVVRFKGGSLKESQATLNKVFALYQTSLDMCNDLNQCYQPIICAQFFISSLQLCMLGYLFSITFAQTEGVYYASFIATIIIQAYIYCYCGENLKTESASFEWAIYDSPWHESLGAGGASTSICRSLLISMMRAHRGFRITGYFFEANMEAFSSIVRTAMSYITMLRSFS
T1 sequence (Q9VNB5 1-486 partner): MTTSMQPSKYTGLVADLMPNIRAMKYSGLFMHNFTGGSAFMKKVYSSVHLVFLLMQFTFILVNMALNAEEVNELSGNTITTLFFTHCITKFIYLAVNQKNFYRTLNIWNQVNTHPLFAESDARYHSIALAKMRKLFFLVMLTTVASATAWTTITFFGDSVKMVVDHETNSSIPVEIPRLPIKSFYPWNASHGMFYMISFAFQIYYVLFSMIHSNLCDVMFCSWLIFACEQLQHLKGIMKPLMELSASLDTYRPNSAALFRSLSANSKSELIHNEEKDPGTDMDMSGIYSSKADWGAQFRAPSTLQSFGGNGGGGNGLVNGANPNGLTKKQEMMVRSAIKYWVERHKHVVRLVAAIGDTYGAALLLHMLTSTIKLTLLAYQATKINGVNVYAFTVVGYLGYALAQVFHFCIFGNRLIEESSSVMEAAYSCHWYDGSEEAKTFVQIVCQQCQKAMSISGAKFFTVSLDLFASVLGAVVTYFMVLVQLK
Description: Calcium ion fluorescence (GCaMP6) assay, OR47a stable HEK293 cell line. The format is cell-based. The following applies: for Average response: mean of biological replicates; for OR47a Average response (VUAA1-normalized): 50 μM VUAA1 = 1. A digest of the protocol:
(§1)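 Responses are VUAA1-normalized ΔF: each VOC-evoked calcium signal, (FMAX−F0)/F0 over 30 s after injection, divided by the same line's mean 50 µM VUAA1 response. Cells were doxycycline-induced HEK293 with GCaMP6 and the cognate Drosophila OR, in HEPES buffer pH 7.3; ligands tested 0.01–100 μM.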

The target of test [2] is T2, Drosophila OR98a (Drosophila melanogaster, UniProt Q9VAZ3).
T2 construct: expressed in transfected cells
T2 sequence (Q9VAZ3 1-397): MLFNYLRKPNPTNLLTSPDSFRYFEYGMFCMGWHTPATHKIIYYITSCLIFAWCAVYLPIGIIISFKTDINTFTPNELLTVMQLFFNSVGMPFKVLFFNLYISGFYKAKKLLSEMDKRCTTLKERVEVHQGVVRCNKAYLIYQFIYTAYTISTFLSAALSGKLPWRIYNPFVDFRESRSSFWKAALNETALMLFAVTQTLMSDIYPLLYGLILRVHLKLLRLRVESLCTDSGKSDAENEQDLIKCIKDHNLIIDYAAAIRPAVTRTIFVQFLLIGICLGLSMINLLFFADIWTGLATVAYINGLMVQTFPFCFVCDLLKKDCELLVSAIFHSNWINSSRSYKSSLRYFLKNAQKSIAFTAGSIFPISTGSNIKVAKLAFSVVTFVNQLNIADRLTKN
T2 sequence (Q9VNB5 1-486 partner): T1 sequence (Q9VNB5 1-486 partner)
Description: Calcium ion fluorescence (GCaMP6) assay, OR98a stable HEK293 cell line. The format is cell-based. The following applies: for Average response: average of biological replicates, fraction of VUAA1 response; for OR98a Average response (VUAA1-normalized): 50 μM VUAA1 = 1. Summed up: as §1

Where [3] appears, read: OR47a cell line, odorant cc. 1 µM.
[4] abbreviates: OR47a cell line, odorant cc. 10 µM.
Where [5] appears, read: OR47a cell line, odorant cc. 100 µM.
The mark [6] stands for this setting: concentration 1, normalized fluorescence change, values below 0.05 threshold given as 0.
Where [7] appears, read: concentration 10, normalized fluorescence change, values below 0.05 threshold given as 0.
Where [8] appears, read: concentration 100, normalized fluorescence change, values below 0.05 threshold given as 0.
The mark [9] stands for this setting: HEK293, read-out: OR47a Average response (VUAA1-normalized).
The mark [10] stands for this setting: ligand concentration 1 (unit not given), threshold 0.05, below shown as 0.
Where [11] appears, read: ligand concentration 10 (unit not given), threshold 0.05, below shown as 0.
[12] abbreviates: ligand concentration 100 (unit not given), threshold 0.05, below shown as 0.
[13] abbreviates: HEK293, read-out: Average response.
Setting [14] is: HEK293, read-out: OR98a Average response (VUAA1-normalized).
The mark [15] stands for this setting: HEK293, read-out: OR47a response (VUAA1-normalized response).
[16] abbreviates: HEK293, read-out: OR98a response (VUAA1-normalized response).
The mark [17] stands for this setting: ligand concentration 1 (unit not given), 0.05 threshold, values below shown as 0.
[18] abbreviates: ligand concentration 10 (unit not given), 0.05 threshold, values below shown as 0.
The mark [19] stands for this setting: ligand concentration 100 (unit not given), 0.05 threshold, values below shown as 0.

Like-named read-outs stand apart in the source and are kept apart here.

For the molecule `CC1=CCC[C@@]2(C)[C@@H]3CC[C@]12CC3(C)C` [(−)-α-neoclovene], the Average response in test [1] (setting [3]) came to 0.00; in test [1] (setting [4]), 0.00; in test [1] (setting [5]), 0.018; in test [2] (cc. 1 µM, OR98a cell line), 0.15; in test [2] (cc. 10 µM, OR98a cell line), 0.00; in test [2] (cc. 100 µM, OR98a cell line), 0.0421. Besides, the “OR47a response (VUAA1-normalized response)” value in test [1] (VOC concentration 1 μM), in test [1] (VOC concentration 10 μM) and in test [1] (VOC concentration 100 μM) was 0.00 throughout. Further, the “DF norm AVERAGE OR47a” value in test [1] (setting [6]), in test [1] (setting [7]) and in test [1] (setting [8]) was 0 throughout. For the same molecule, the “OR98a response (VUAA1-normalized response)” value in test [2] (VOC concentration 1 μM) worked out at 0.15; in test [2] (VOC concentration 10 μM), 0.00; in test [2] (VOC concentration 100 μM), 0.00. The “DF norm AVERAGE OR98a” value in test [2] (setting [6]) came to 0.1483; in test [2] (setting [7]), 0; in test [2] (setting [8]), 0.

With `C=C(C)C1CCC2(C)OC2C1` (single isomer, unassigned; (+)) [(+)-limonene oxide], the Average response in test [1] (setting [3]) is reported as 0.00; in test [1] (setting [4]), 0.00; in test [1] (setting [5]) it was 0.00; in test [2] (cc. 1 µM, OR98a cell line), 0.00; in test [2] (cc. 10 µM, OR98a cell line), 0.00; in test [2] (cc. 100 µM, OR98a cell line), 0.00. Further, the “OR47a response (VUAA1-normalized response)” value in test [1] (VOC concentration 1 μM), in test [1] (VOC concentration 10 μM) and in test [1] (VOC concentration 100 μM) was 0.00 in each case. The “DF norm AVERAGE OR47a” value in test [1] (setting [6]), in test [1] (setting [7]) and in test [1] (setting [8]) was 0 in each case. In addition, the “OR98a response (VUAA1-normalized response)” value in test [2] (VOC concentration 1 μM), in test [2] (VOC concentration 10 μM) and in test [2] (VOC concentration 100 μM) was 0.00 each time. Besides, the “DF norm AVERAGE OR98a” value in test [2] (setting [6]), in test [2] (setting [7]) and in test [2] (setting [8]) was 0 in each case.

Consider `CCCOC(C)=O` [propyl acetate], for which the activation at 1 µM in test [1] (setting [9]) was 0%; in test [2] (setting [13]), 10%; in test [2] (setting [14]) it was 10%. Besides, the activation at 10 µM in test [1] (setting [9]) turned out to be 9%; in test [2] (setting [13]), 8%; in test [2] (setting [14]), 8%. Moreover, the figures for the activation at 100 µM in test [1] (setting [9]), in test [2] (setting [13]) and in test [2] (setting [14]) were 33%, 11% and 11%, respectively. The “OR47a response (VUAA1-normalized) at 1 μM” value in test [1] (OR47a cell line, VOC concentration 1 μM) came out at 0.00. For the same molecule, in test [1] (OR47a cell line, VOC concentration 10 μM), the “OR47a response (VUAA1-normalized) at 10 μM” value stood at 0.09. Further, the “OR47a response (VUAA1-normalized) at 100 μM” value in test [1] (OR47a cell line, VOC concentration 100 μM) came to 0.33. Also, the Average response in test [1] (setting [3]) amounted to 0.00; in test [1] (setting [4]), 0.09; in test [1] (setting [5]), 0.33. For the same molecule, the entries for the “DF norm AVERAGE OR47a” value in test [1] (setting [10]), in test [1] (setting [11]) and in test [1] (setting [12]) were 0, 0.0896 and 0.3345, respectively. In test [2] (OR98a cell line, VOC concentration 1 μM), the “OR98a response (VUAA1-normalized) at 1 μM” value was 0.10. For the same molecule, in test [2] (OR98a cell line, VOC concentration 10 μM), the “OR98a response (VUAA1-normalized) at 10 μM” value is given as 0.08. Further, the “OR98a response (VUAA1-normalized) at 100 μM” value in test [2] (OR98a cell line, VOC concentration 100 μM) is recorded as 0.11. The “DF norm AVERAGE OR98a” value in test [2] (setting [10]) was 0.09538; in test [2] (setting [11]) it was 0.07848; in test [2] (setting [12]), 0.1069.

Take `CC(=O)c1ccccc1` [acetophenone]: the results for the activation at 1 µM in test [1] (setting [15]), in test [2] (setting [13]) and in test [2] (setting [16]) were 0%, 4% and 0%, respectively. In addition, the activation at 10 µM in test [1] (setting [15]), in test [2] (setting [13]) and in test [2] (setting [16]) was 0% each time. In addition, the activation at 100 µM in test [1] (setting [15]), in test [2] (setting [13]) and in test [2] (setting [16]) was 0% each time. Besides, the Average response was found to be 0.0171 in test [1] (setting [3]), 0.00 in test [1] (setting [4]) and 0.0243 in test [1] (setting [5]). In addition, the “DF norm AVERAGE OR47a” value in test [1] (setting [10]), in test [1] (setting [11]) and in test [1] (setting [12]) was 0 throughout. Further, the “DF norm AVERAGE OR98a” value in test [2] (setting [10]), in test [2] (setting [11]) and in test [2] (setting [12]) was 0 each time.

For `CC/C=C\CCO` [Z3-hexenol], the “OR47a Average response (VUAA1-normalized)” value in test [1] (1 μM VOC) is recorded as 0.03; in test [1] (10 μM VOC), 0.06; in test [1] (100 μM VOC), 0.10. For the same molecule, the Average response in test [1] (setting [3]) was determined as 0.0266; in test [1] (setting [4]), 0.0571; in test [1] (setting [5]) it was 0.10; in test [2] (cc. 1 µM, OR98a cell line) it was 0.00; in test [2] (cc. 10 µM, OR98a cell line) it was 0.17; in test [2] (cc. 100 µM, OR98a cell line), 0.11. The “DF norm AVERAGE OR47a” value in test [1] (setting [17]) came out at 0; in test [1] (setting [18]) it was 0.0571; in test [1] (setting [19]), 0.1005. In addition, the “OR98a Average response (VUAA1-normalized)” value worked out at 0.00 in test [2] (1 μM VOC), 0.17 in test [2] (10 μM VOC) and 0.11 in test [2] (100 μM VOC). Moreover, the “DF norm AVERAGE OR98a” value in test [2] (setting [17]) is listed as 0; in test [2] (setting [18]), 0.167; in test [2] (setting [19]), 0.1147.

`Cc1ccc(C)c(C)c1` [1,2,4-trimethylbenzene]: the activation at 1 µM in test [1] (setting [15]), in test [2] (setting [13]) and in test [2] (setting [16]) was 0% each time. Further, the activation at 10 µM was 0% in test [1] (setting [15]), 13% in test [2] (setting [13]) and 13% in test [2] (setting [16]). In addition, the activation at 100 µM in test [1] (setting [15]) worked out at 0%; in test [2] (setting [13]), 5%; in test [2] (setting [16]), 5%. Besides, the Average response in test [1] (setting [3]), in test [1] (setting [4]) and in test [1] (setting [5]) was 0.00 each time. For the same molecule, the “DF norm AVERAGE OR47a” value in test [1] (setting [6]), in test [1] (setting [7]) and in test [1] (setting [8]) was 0 throughout. The “DF norm AVERAGE OR98a” value in test [2] (setting [6]) was 0; in test [2] (setting [7]), 0.1254; in test [2] (setting [8]), 0.05229.
